Test results reported in PubChem BioAssay AID1963978 (Molecular Pharmacology Branch, DTP, NCI, 2024).

Test system: 616215-338-R-J1-PDC spheroids with HUVEC/MSC, viability
Assay: Anticancer human tumor 616215-338-R-J1-PDC patient-derived colon adenocarcinoma cell line growth inhibition [PI3K]
Settings: for IC50: curve of first compound; for viability, T/C: stronger effect = lower value
Description: Combinatorial screen of targeted agents with the PI3K inhibitors inavolisib, alpelisib, duvelisib, and copanlisib in multi-cell type tumor spheroids
A high-throughput screen of multi-cell type tumor spheroids was designed to identify active combinations of targeted small molecules and PI3K pathway inhibitors. Complex spheroids include a stromal component modeled by human endothelial cells (HUVEC) and fibroblasts modeled by human mesenchymal stem cells (MSCs). The concentration ranges selected for each drug and investigational agent were based upon clinically achievable concentrations if the clinical Cmax of the agent was known.
Compounds. The drugs and investigational agents: inavolisib (NSC800729), alpelisib (NSC765974), duvelisib (NSC772469), copanlisib (NSC816437), ipatasertib (NSC767898), afuresertib (NSC778305), talazoparib (NSC767125), sapanisertib (NSC764658), selumetinib (NSC741078), tovorafenib (DAY101, NSC766906), vemurafenib (NSC761431), ravoxertinib (NSC781343), sotorasib (NSC818433), MRTX1133 (NSC 836407), abemaciclib (NSC 768073), palbociclib (NSC758247), venetoclax (NSC 766270), SY5609 (NSC837396), enzalutamide (NSC755605), and darolutamide (NSC825331), were obtained from the National Cancer Institute (NCI) Developmental Therapeutics Program Chemical Repository. The FDA-approved anticancer drug set is available from the NCI Developmental Therapeutics Program. […] The stock solutions were prepared in dimethyl sulfoxide (DMSO, Sigma-Aldrich, St. Louis, MO, cat. D2650) at 800-fold the tested concentration and stored at -70 degrees C prior to their use. All drugs and investigational agents were tested over a range starting from a high concentration at or near the clinical Cmax and decreasing in half-log increments. If the clinical Cmax for an agent had not been determined, the highest concentration tested was 10 microM.
Cell Culture. All cells were maintained in an incubator at 37 degrees C and 5% CO2 with 95% humidity. The PDC lines were cultured according to standard operating procedures established by the NCI PDMR (https://pdmr.cancer.gov/sops/default.htm). All PDCs were thawed and cultured in Matrigel-coated flasks prepared with a working solution of 1X Ham's F-12 nutrient mix, without supplementation (Invitrogen, Waltham, MA, cat. 11765054), 100 U/mL penicillin-streptomycin (Invitrogen, cat. 15140122), and 2.5% Matrigel (Corning Inc., Corning, NY, cat. 354248) for the first three passages. The 354836-022-R-J1-PDC, 475296-252-R-J1-PDC, and 997726-040-R-J2-PDC lines were cultured in 6A media, which includes advanced DMEM/F-12 (Thermo Fisher Scientific, cat. 12634028), 10 mM HEPES (Thermo Fisher Scientific, cat. 15630080), 1X GlutaMAX supplement (Thermo Fisher Scientific, cat. 35050061), 0.1 mg/mL primocin (InvivoGen, San Diego, CA, cat. ant-pm-2), 10% defined fetal bovine serum, heat inactivated (HyClone Laboratories Inc., Logan, UT, cat. SH30070.03HI), 50% L-WRN conditioned media (ATCC, cat. CRL-3276), 1.25 mM N-Acetyl-L-cysteine (Sigma-Aldrich, cat. A9165), 10 mM nicotinamide (Sigma-Aldrich, cat. N0636), 1X B-27 supplement (Thermo Fisher Scientific, cat. 17504044), 1X N-2 supplement (Thermo Fisher Scientific, cat. 17502048), and 10 microM Y-27632 dihydrochloride (Tocris Bioscience, Bristol, United Kingdom, cat. 1254). The 624824-186-R-J2-PDC line was cultured in 6C/Colon 1B media, which includes all 6A media components plus 50 ng/mL human EGF recombinant protein (Thermo Fisher Scientific, cat. PHG0311). […]
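Further: spheroids exposed to agents for seven days before the viability read.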

`Cn1cnc2c(F)c(Nc3ccc(Br)cc3Cl)c(C(=O)NOCCO)cc21` + CC(Nc1ccc2c(c1)OCCn1cc(N3C(=O)OCC3C(F)F)nc1-2)C(N)=O showed an IC50 (second compound 0.00316 µM) of 1400 nM, an IC50 (second compound 0.01 µM) of 1160 nM and an IC50 (second compound 0.0316 µM) of 764 nM. The IC50 (second compound 0.1 µM) was 982 nM, the IC50 (second compound 0.316 µM) was 495 nM and the IC50 (second compound 1 µM) was 408 nM. The viability, T/C (second compound 0.00316 µM, first compound 0.00949 µM) was 96.5%, the viability, T/C (second compound 0.00316 µM, first compound 0.03 µM) was 98.9% and the viability, T/C (second compound 0.00316 µM, first compound 0.0949 µM) was 83.7%. It also gave a viability, T/C (second compound 0.00316 µM, first compound 0.3 µM) of 76%, a viability, T/C (second compound 0.00316 µM, first compound 0.949 µM) of 56.8% and a viability, T/C (second compound 0.00316 µM, first compound 3 µM) of 36.5%. The viability, T/C (second compound 0.01 µM, first compound 0.00949 µM) was 94.6%, the viability, T/C (second compound 0.01 µM, first compound 0.03 µM) was 91% and the viability, T/C (second compound 0.01 µM, first compound 0.0949 µM) was 87.8%. The viability, T/C (second compound 0.01 µM, first compound 0.3 µM) was 71.8%, the viability, T/C (second compound 0.01 µM, first compound 0.949 µM) was 54.7% and the viability, T/C (second compound 0.01 µM, first compound 3 µM) was 31.4%. For the same compound, the viability, T/C (second compound 0.0316 µM, first compound 0.00949 µM) was 96.1%, the viability, T/C (second compound 0.0316 µM, first compound 0.03 µM) was 110% and the viability, T/C (second compound 0.0316 µM, first compound 0.0949 µM) was 77.2%. It also gave a viability, T/C (second compound 0.0316 µM, first compound 0.3 µM) of 77.5%, a viability, T/C (second compound 0.0316 µM, first compound 0.949 µM) of 38.3% and a viability, T/C (second compound 0.0316 µM, first compound 3 µM) of 38.8%. The viability, T/C (second compound 0.1 µM, first compound 0.00949 µM) was 106%, the viability, T/C (second compound 0.1 µM, first compound 0.03 µM) was 86.9% and the viability, T/C (second compound 0.1 µM, first compound 0.0949 µM) was 87.2%. The viability, T/C (second compound 0.1 µM, first compound 0.3 µM) was 65.2%, the viability, T/C (second compound 0.1 µM, first compound 0.949 µM) was 48.9% and the viability, T/C (second compound 0.1 µM, first compound 3 µM) was 37%. The viability, T/C (second compound 0.316 µM, first compound 0.00949 µM) was 109%, the viability, T/C (second compound 0.316 µM, first compound 0.03 µM) was 94.8% and the viability, T/C (second compound 0.316 µM, first compound 0.0949 µM) was 79.4%. It also gave a viability, T/C (second compound 0.316 µM, first compound 0.3 µM) of 57.4%, a viability, T/C (second compound 0.316 µM, first compound 0.949 µM) of 39% and a viability, T/C (second compound 0.316 µM, first compound 3 µM) of 35.9%. The viability, T/C (second compound 1 µM, first compound 0.00949 µM) was 106%, the viability, T/C (second compound 1 µM, first compound 0.03 µM) was 85.1% and the viability, T/C (second compound 1 µM, first compound 0.0949 µM) was 79.7%. It also gave a viability, T/C (second compound 1 µM, first compound 0.3 µM) of 51.6%, a viability, T/C (second compound 1 µM, first compound 0.949 µM) of 37.5% and a viability, T/C (second compound 1 µM, first compound 3 µM) of 26.4%.
`Cn1ncc(Cl)c1-c1cc(C(=O)NC(CN)Cc2cccc(F)c2)sc1Cl` (centres undefined) + CC(Nc1ncnc2nc[nH]c12)c1cc2cccc(Cl)c2c(=O)n1-c1ccccc1 gave an IC50 (second compound 0.0316 µM) of 5370 nM, an IC50 (second compound 0.1 µM) of 4200 nM and an IC50 (second compound 0.316 µM) of 4150 nM. For the same compound, the IC50 (second compound 1 µM) was 4480 nM, the IC50 (second compound 3.16 µM) was 3160 nM and the IC50 (second compound 10 µM) was 3290 nM. The viability, T/C (second compound 0.0316 µM, first compound 0.0316 µM) was 106%, the viability, T/C (second compound 0.0316 µM, first compound 0.1 µM) was 87.6% and the viability, T/C (second compound 0.0316 µM, first compound 0.316 µM) was 98%. For the same compound, the viability, T/C (second compound 0.0316 µM, first compound 1 µM) was 93.7%, the viability, T/C (second compound 0.0316 µM, first compound 3.16 µM) was 75.7% and the viability, T/C (second compound 0.0316 µM, first compound 10 µM) was 19.8%. The viability, T/C (second compound 0.1 µM, first compound 0.0316 µM) was 107%, the viability, T/C (second compound 0.1 µM, first compound 0.1 µM) was 103% and the viability, T/C (second compound 0.1 µM, first compound 0.316 µM) was 100%. For the same compound, the viability, T/C (second compound 0.1 µM, first compound 1 µM) was 92%, the viability, T/C (second compound 0.1 µM, first compound 3.16 µM) was 60.7% and the viability, T/C (second compound 0.1 µM, first compound 10 µM) was 16.4%. For the same compound, the viability, T/C (second compound 0.316 µM, first compound 0.0316 µM) was 98.4%, the viability, T/C (second compound 0.316 µM, first compound 0.1 µM) was 100% and the viability, T/C (second compound 0.316 µM, first compound 0.316 µM) was 104%. For the same compound, the viability, T/C (second compound 0.316 µM, first compound 1 µM) was 95%, the viability, T/C (second compound 0.316 µM, first compound 3.16 µM) was 59.5% and the viability, T/C (second compound 0.316 µM, first compound 10 µM) was 19.6%. The viability, T/C (second compound 1 µM, first compound 0.0316 µM) was 95.9%, the viability, T/C (second compound 1 µM, first compound 0.1 µM) was 88.5% and the viability, T/C (second compound 1 µM, first compound 0.316 µM) was 105%. For the same compound, the viability, T/C (second compound 1 µM, first compound 1 µM) was 94.5%, the viability, T/C (second compound 1 µM, first compound 3.16 µM) was 64% and the viability, T/C (second compound 1 µM, first compound 10 µM) was 17.6%. For the same compound, the viability, T/C (second compound 3.16 µM, first compound 0.0316 µM) was 104%, the viability, T/C (second compound 3.16 µM, first compound 0.1 µM) was 113% and the viability, T/C (second compound 3.16 µM, first compound 0.316 µM) was 96.1%. For the same compound, the viability, T/C (second compound 3.16 µM, first compound 1 µM) was 82.1%, the viability, T/C (second compound 3.16 µM, first compound 3.16 µM) was 50% and the viability, T/C (second compound 3.16 µM, first compound 10 µM) was 19.6%. For the same compound, the viability, T/C (second compound 10 µM, first compound 0.0316 µM) was 98.3%, the viability, T/C (second compound 10 µM, first compound 0.1 µM) was 112% and the viability, T/C (second compound 10 µM, first compound 0.316 µM) was 106%. For the same compound, the viability, T/C (second compound 10 µM, first compound 1 µM) was 75.1%, the viability, T/C (second compound 10 µM, first compound 3.16 µM) was 54.7% and the viability, T/C (second compound 10 µM, first compound 10 µM) was 20.6%.
